Data published in patent US4471116A, “Substituted (10H-phenothiazin-10-L)-propyl-1-piperazines” (Hoffmann-La Roche Inc., priority 1982, dated 1984).
Like-named read-outs stand apart in the source and are kept apart here.

Legend:
[1] = system: avoidance behavior; experiment: Discrete Avoidance - Rats (avoidance block / escape block); format: in vivo, rat; conditions: for ED50 / inhibition in vivo at 30 mg/kg: Rattus norvegicus; for ED50: po
Text: For example, by one procedure, trained rats are placed in experimental chambers equipped with a response lever, a steel grid floor for delivery of electric shock and a loudspeaker for presentation of auditory stimuli. […] The rats can terminate a trial at any point by depression of the response lever. A response during the initial fifteen-second warning tone ends the trial before shock delivery and is considered an avoidance response, while a response occurring during shock delivery is an escape response. Trials are presented every two minutes during a one-hour test session (30 trials per session). […] Compounds are administered to a minimum of three to four rats at each dose level over a range of doses. Rats receive vehicle alone, during control sessions prior to drug administration. Each rat is tested daily or weekly, after a single drug administration, until avoidance behavior returns to pre-drug baseline levels. The session is divided into three consecutive twenty minute (ten trial) segments. Response counts are summed over all subjects at a given dose within each segment. […] This number is expressed as a percentage of the total trials within the segment. […] The lowest dose which produced a 20% block of escape responding (EBD 20) is read from a graphic dose-effect plot. In obtaining these values, percent effect is plotted against the log dose.

[2] = system: Continuous Avoidance; experiment: Continuous Avoidance (Squirrel Monkeys); format: in vivo, squirrel monkey; conditions: Primates; Squirrel Monkey, PO, 1 Hour Post-Drug; read-out: Continuous Avoidance MED Shocks
[3] = system: Apomorphine Induced Emesis; experiment: Apomorphine Induced Emesis antagonism (Dogs); format: in vivo, dog; conditions: Canis lupus familiaris; Dog, SC, 1 Hour Post-Drug; read-out: Anti-Apomorphine Emesis ED50
[4] = system: Amphetamine Induced Rotation; experiment: Amphetamine Induced Rotation antagonism (S. Nigra Lesioned Rats) / Rotation Antagonism; format: in vivo, rat; conditions: Rat, PO, 1 Hour Post-Drug
[5] = system: Confinement Motor Activity; experiment: Confinement Motor Activity; format: in vivo; conditions: Rat, PO, 1 Hour Post-Drug; read-out: Confinement Motor Activity DD50
[6] = system: Dopamine Turnover-Brain Caudate; experiment: Dopamine Turnover-Brain, Caudate; format: in vivo; conditions: Rat, 10 mg/kg IP, 1 Hour Post-Drug
[7] = system: Dopamine Turnover-Brain Limbic and Remainder; experiment: Dopamine Turnover-Brain, Limbic and Remainder; format: in vivo; conditions: Rat, 10 mg/kg IP, 1 Hour Post-Drug
[8] = system: Prolactin Secretion; experiment: Prolactin Secretion (in-vitro); format: cell-based; conditions: Rat, read-out: Prolactin Secretion ID50
[9] = Acute toxicity (LD50) in mice after a single dose; conditions: mouse, in vivo; for LD50 at 168 h: 7 days
[10] = system: revertant colonies; experiment: Ames procedure (mutagenicity)

CN(C)CCCN1c2ccccc2Sc2ccc(Cl)cc21 [Chlorpromazine, chlorpromazine, reference compound]
ED50 ([1]; 1 h, read-out: Discrete Avoidance ABD50): 5 mg/kg | minimal effective dose [2]: 2 mg/kg | ED50 [3]: 1.4 mg/kg | ED50 [4]: 20.5 mg/kg | ED50 [5]: 4.6 mg/kg | Dopamine Turnover-Brain, Caudate [6]: Signif. .uparw. | Dopamine Turnover-Brain, Limbic and Remainder [7]: Signif. .uparw. | IC50 [8]: 130 nM

CC(C)Nc1ccc(OCCN2CCN(CCCN3c4ccccc4Sc4ccc(Cl)cc43)CC2)cc1.O=C(O)/C=C\C(=O)O [Compound B, N-[4-[2-[4-[3-(2-chloro-10H-phenothiazin-10-yl)propyl]-1-piperazinyl]ethoxy]phenyl]-α-methylethaneamine (Z)-2-butenedioate]
Duration of Sig. Activity ([1]; 30 mg/kg po): 3 days | Time of Peak Effect ([1]; 30 mg/kg po): 60 min | inhibition in vivo at 30 mg/kg ([1]; 1 h, 30 mg/kg po, 60 min. post-drug, read-out: Percentage Block of Avoidance, 60 min. post-drug): 100% | ED50 ([1]; 1 h, p.o., 60 minutes pretreatment, day of administration, read-out: ABD50): 8.7 mg/kg | inhibition in vivo at 30 mg/kg ([1]; 30 mg/kg po, 24 hrs. post-drug, read-out: Percentage Block of Avoidance, 24 hrs. post-drug): 70% | inhibition in vivo at 30 mg/kg ([1]; 30 mg/kg po, at the indicated duration, read-out: Avoidance block at Duration of Sig. Activity (AB)): 43% | inhibition in vivo at 30 mg/kg ([1]; 30 mg/kg po, at time of peak effect, read-out: Avoidance block at Time of Peak Effect (AB)): 100% | duration of neuroleptic effect (in words) ([1]; discrete avoidance procedure): several days | time of maximum neuroleptic activity (in words) ([1]; p.o.): on the day of administration | LD50 at 168 h ([9]; ip): 230 mg/kg | LD50 at 24 h ([9]; po, 24 hours): > 1000 mg/kg | LD50 at 168 h ([9]; po): 248 mg/kg | mutogenic effects (conclusion) [10]: free of mutogenic effects | revertant colonies (Ames) [10]: no increase in revertant colonies
